The results in this text go back to ChEMBL document CHEMBL1201862, “PubChem BioAssay data set” (2004).

Test systems include SK-MEL-2; NCI-H522; IGROV-1; SN12C; MDA-MB-435; SW-620; SF-539; UO-31; OVCAR-8; OVCAR-4; MDA-N; A498; MCF7; 786-0; HCT-116; TK-10; EKVX; UACC-62; Hs-578T; SNB-19.
Assay in all cases: NCI tumour cell line growth inhibition, 48 h

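All cell lines were grown in 96-well plates and treated with compound for 48 hours. Abbreviation: GI50, concentration required for 50% inhibition of growth.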 The source made the active and inactive calls. No stated cut-off is given here; in the data, active = GI50 up to about 1.1 µM and inactive = higher.

Regarding `C/C(=N\O)c1ccc(Nc2c3ccccc3nc3occc23)cc1`, the GI50 in the experiment on SK-MEL-2 is 0.196 µM (active); with NCI-H522 it was 0.103 µM (active); with IGROV-1, 0.231 µM (active); with SN12C, 1.44 µM (inactive); in the experiment with MDA-MB-435 it was 0.0246 µM (active); with SW-620, 0.21 µM (active). In addition, the GI50 was 0.169 µM (active) in the experiment on SF-539; 3.49 µM (inactive) in the experiment on UO-31; 0.531 µM (active) with OVCAR-8; 0.762 µM (active) in the experiment on OVCAR-4; 0.0847 µM (active) in the experiment on MDA-N; 1.11 µM (active) in the experiment on A498. The GI50 with MCF7 is 0.18 µM (active); with 786-0, 0.51 µM (active); with HCT-116, 0.185 µM (active); in the experiment on TK-10, 1.17 µM (inactive); in the experiment with EKVX, 5.82 µM (inactive); with UACC-62 it was 0.228 µM (active). For the same compound, the values for the GI50 in the experiment on Hs-578T and in the experiment with SNB-19 were 0.352 µM (active) and 0.603 µM (active), respectively.
For the compound `CC(=O)OCC1OC(n2c(N)c(C#N)c(C)c(C#N)c2=S)C(OC(C)=O)C(OC(C)=O)C1OC(C)=O` (stereo not given), the GI50 in the experiment on SK-MEL-2, with NCI-H522, in the experiment with IGROV-1, in the experiment on SN12C, in the experiment with MDA-MB-435 and in the experiment with SW-620 was > 100 µM (inactive) each time. The GI50 with SF-539, in the experiment with UO-31, in the experiment on OVCAR-8, in the experiment with OVCAR-4, in the experiment with MDA-N and in the experiment with A498 was > 100 µM (inactive) in each case. The GI50 in the experiment on MCF7, with 786-0, in the experiment on HCT-116, in the experiment with TK-10, in the experiment on EKVX and with UACC-62 was > 100 µM (inactive) throughout. The GI50 in the experiment on Hs-578T and in the experiment with SNB-19 was > 100 µM (inactive) each time.
On to `CN1c2c(O)nc(N)nc2NCC1CCNc1ccc(C(=O)NC(CCC(=O)O)C(=O)O)cc1` (stereo not given), for which the GI50 in the experiment with SK-MEL-2 was 1470 µM (inactive); with NCI-H522, 423 µM (inactive); with IGROV-1, 1030 µM (inactive); with SN12C, 540 µM (inactive); with MDA-MB-435, 104 µM (inactive); in the experiment on SW-620, 52.4 µM (inactive). Also, the GI50 with SF-539 was 132 µM (inactive); with UO-31, 1310 µM (inactive); in the experiment on OVCAR-8, 1160 µM (inactive); in the experiment on OVCAR-4, 893 µM (inactive); in the experiment with MDA-N, 112 µM (inactive); with A498, 948 µM (inactive). Moreover, the GI50 in the experiment on MCF7 is 324 µM (inactive); with 786-0, 4.59 µM (inactive); with HCT-116 it was 28.8 µM (inactive); with TK-10, 1030 µM (inactive); in the experiment on EKVX, 1260 µM (inactive); in the experiment on UACC-62, 133 µM (inactive). Further, the figures for the GI50 in the experiment with Hs-578T and with SNB-19 were 2120 µM (inactive) and 1820 µM (inactive), respectively.
For `C=C(Br)CN(C(C)=O)C1CCCCC1`, the GI50 with SK-MEL-2, in the experiment with NCI-H522, in the experiment with IGROV-1, in the experiment on SN12C, with MDA-MB-435 and in the experiment with SW-620 was > 100 µM (inactive) in each case. The GI50 in the experiment on SF-539, in the experiment with UO-31, in the experiment with OVCAR-8, in the experiment with OVCAR-4, in the experiment with MDA-N and in the experiment on A498 was > 100 µM (inactive) each time. Besides, the GI50 with MCF7, in the experiment on 786-0, in the experiment on HCT-116, with TK-10, in the experiment on EKVX and in the experiment with UACC-62 was > 100 µM (inactive) in each case. In addition, the GI50 in the experiment on Hs-578T and in the experiment with SNB-19 was > 100 µM (inactive) in each case.
`CC(=O)O[C@H]1C(=O)[C@@]2(C)[C@H]([C@H](OC(=O)c3ccncc3)[C@]3(O)C[C@H](OC(=O)[C@H](O)[C@@H](NC(=O)c4ccccc4)c4ccccc4)C(C)=C1C3(C)C)[C@]1(OC(C)=O)CO[C@@H]1C[C@@H]2O`: the GI50 was 6.71 µM (inactive) in the experiment with SK-MEL-2; 1.77 µM (inactive) in the experiment on NCI-H522; 2.44 µM (inactive) in the experiment on IGROV-1; > 16.4 µM (inactive) with SN12C; 0.714 µM (active) in the experiment with MDA-MB-435; 1.56 µM (inactive) with SW-620. Also, the GI50 was 0.875 µM (active) with SF-539; > 25 µM (inactive) in the experiment on UO-31; 8.53 µM (inactive) with OVCAR-8; > 25 µM (inactive) with OVCAR-4; 0.877 µM (active) in the experiment on MDA-N; > 15.5 µM (inactive) with A498. Moreover, the GI50 was 0.918 µM (active) in the experiment with MCF7; 6.81 µM (inactive) with 786-0; 1.1 µM (active) with HCT-116; > 25 µM (inactive) in the experiment on TK-10; > 25 µM (inactive) in the experiment with EKVX; 2.66 µM (inactive) with UACC-62. The values for the GI50 in the experiment with Hs-578T and in the experiment with SNB-19 were 1.22 µM (inactive) and 4.51 µM (inactive), respectively.
Turning to `O=[N+]([O-])c1cccc2nc3ccccc3c(NCCN(CCO)CCO)c12`, the GI50 with SK-MEL-2 is 0.00527 µM (active); in the experiment with NCI-H522 it was 0.00116 µM (active); with IGROV-1 it was 0.00578 µM (active); in the experiment with SN12C it was 0.00537 µM (active); in the experiment on MDA-MB-435, 0.00141 µM (active); in the experiment with SW-620, 0.000774 µM (active). The GI50 in the experiment with SF-539 was 0.00689 µM (active); with UO-31, 0.0397 µM (active); in the experiment with OVCAR-8, 0.00351 µM (active); in the experiment on OVCAR-4, 0.00453 µM (active); in the experiment on MDA-N, 0.00143 µM (active); in the experiment with A498 it was 0.00501 µM (active). Besides, the GI50 with MCF7 was 0.00206 µM (active); in the experiment on 786-0, 0.00429 µM (active); in the experiment with HCT-116, 0.00114 µM (active); in the experiment on TK-10 it was 0.00836 µM (active); in the experiment with EKVX, 0.00731 µM (active); in the experiment on UACC-62, 0.00396 µM (active). The GI50 with Hs-578T is 0.00515 µM (active); in the experiment on SNB-19, 0.00783 µM (active).
Take `C[n+]1c(-c2ccccc2)cc2/c(=C\c3ccc([N+](=O)[O-])cc3)c3ccccc3n21`: the GI50 in the experiment with SK-MEL-2 is 3.01 µM (inactive); in the experiment on NCI-H522, 0.385 µM (active); in the experiment with IGROV-1 it was 1.39 µM (inactive); in the experiment with SN12C it was 2.17 µM (inactive); with MDA-MB-435, 2.54 µM (inactive); in the experiment with SW-620, 1.79 µM (inactive). The GI50 is 0.615 µM (active) with SF-539; 6.05 µM (inactive) in the experiment on UO-31; 1.66 µM (inactive) in the experiment with OVCAR-8; 26.1 µM (inactive) in the experiment on OVCAR-4; 2.37 µM (inactive) in the experiment on MDA-N; 11 µM (inactive) with A498. For the same compound, the GI50 is 2.1 µM (inactive) with MCF7; 1.52 µM (inactive) in the experiment with 786-0; 1.02 µM (active) in the experiment with HCT-116; 9.06 µM (inactive) in the experiment on TK-10; 7.29 µM (inactive) in the experiment with EKVX; 6.35 µM (inactive) in the experiment on UACC-62. Further, the GI50 in the experiment with Hs-578T was 1.29 µM (inactive); with SNB-19, 3.06 µM (inactive).
